Data published in patent US20230038929A1, “Fused Tricyclic Heterocyclic Compounds and Uses Thereof” (Verge Analytics, Inc., priority 2019, published 2023).
pIC50: −log10 of the molar value. Where a name gives a salt, the structure may show the parent alone. Read-outs that look alike come from different tables or passages of the source.

How the values were obtained:
Assay type in all cases: biochemical
[1] = target: T1, PI3Kα (p110α/p85α) (Homo sapiens, UniProt P42336)
T1 construct: Full-length N-terminal; FLAG (N); host or cells: SF9 cells (baculovirus)
T1 sequence (P42336 whole entry): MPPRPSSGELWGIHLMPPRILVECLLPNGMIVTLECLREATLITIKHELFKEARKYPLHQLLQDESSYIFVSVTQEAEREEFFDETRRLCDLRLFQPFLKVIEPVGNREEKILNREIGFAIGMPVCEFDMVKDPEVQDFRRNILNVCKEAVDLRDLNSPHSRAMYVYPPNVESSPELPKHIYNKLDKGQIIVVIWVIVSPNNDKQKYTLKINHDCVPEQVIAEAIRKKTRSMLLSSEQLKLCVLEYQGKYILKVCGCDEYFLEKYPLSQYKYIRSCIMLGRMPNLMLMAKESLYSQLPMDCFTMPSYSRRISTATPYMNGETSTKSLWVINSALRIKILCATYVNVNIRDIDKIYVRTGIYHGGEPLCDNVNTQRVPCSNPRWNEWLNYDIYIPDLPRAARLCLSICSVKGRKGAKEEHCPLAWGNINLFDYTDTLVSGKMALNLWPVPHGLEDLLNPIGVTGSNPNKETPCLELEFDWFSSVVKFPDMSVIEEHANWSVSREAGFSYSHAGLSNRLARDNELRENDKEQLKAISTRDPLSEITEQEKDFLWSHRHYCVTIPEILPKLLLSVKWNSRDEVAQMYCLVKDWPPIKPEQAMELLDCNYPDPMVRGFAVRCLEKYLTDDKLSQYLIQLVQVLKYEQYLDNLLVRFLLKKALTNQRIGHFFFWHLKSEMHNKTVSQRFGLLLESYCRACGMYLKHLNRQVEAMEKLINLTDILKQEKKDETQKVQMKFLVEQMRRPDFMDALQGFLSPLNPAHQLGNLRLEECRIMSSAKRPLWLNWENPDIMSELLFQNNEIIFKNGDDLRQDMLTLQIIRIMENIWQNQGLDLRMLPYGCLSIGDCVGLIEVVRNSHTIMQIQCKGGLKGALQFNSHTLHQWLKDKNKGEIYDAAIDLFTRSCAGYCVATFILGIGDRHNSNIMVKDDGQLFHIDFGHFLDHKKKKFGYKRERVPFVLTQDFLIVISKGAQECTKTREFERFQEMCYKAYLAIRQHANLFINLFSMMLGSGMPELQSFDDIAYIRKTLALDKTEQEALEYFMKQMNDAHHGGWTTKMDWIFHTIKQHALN
T1 sequence (P27986 whole entry, further chain): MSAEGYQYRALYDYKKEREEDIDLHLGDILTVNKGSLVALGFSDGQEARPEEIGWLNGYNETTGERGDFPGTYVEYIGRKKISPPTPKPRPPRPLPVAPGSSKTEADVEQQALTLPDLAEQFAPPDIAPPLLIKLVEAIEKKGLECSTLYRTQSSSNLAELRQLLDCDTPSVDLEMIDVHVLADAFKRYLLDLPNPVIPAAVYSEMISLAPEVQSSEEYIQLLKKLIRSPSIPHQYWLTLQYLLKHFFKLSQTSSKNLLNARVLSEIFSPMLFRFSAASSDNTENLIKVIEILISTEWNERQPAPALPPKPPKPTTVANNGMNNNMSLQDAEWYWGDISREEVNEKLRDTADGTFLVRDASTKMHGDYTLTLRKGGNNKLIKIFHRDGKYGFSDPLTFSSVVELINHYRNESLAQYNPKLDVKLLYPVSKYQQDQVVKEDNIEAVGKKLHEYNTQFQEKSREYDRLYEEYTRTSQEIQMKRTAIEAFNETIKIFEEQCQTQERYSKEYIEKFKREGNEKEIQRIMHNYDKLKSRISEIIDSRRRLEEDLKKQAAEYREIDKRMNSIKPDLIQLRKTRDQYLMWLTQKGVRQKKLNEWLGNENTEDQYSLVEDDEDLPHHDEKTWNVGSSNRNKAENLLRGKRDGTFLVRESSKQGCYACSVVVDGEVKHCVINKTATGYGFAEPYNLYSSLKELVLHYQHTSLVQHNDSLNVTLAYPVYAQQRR

[2] = target: T2, PI3Kδ (p110δ/p85α) (Homo sapiens, UniProt O00329)
T2 construct: Full-length N-terminal GST-; GST (N); host or cells: SF9 cells (baculovirus)

[3] = target: T3, PI3Kβ (p110β/p85α) (Homo sapiens, UniProt P42338)
T3 construct: Full-length N-terminal GST-; GST (N); host or cells: SF9 cells (baculovirus)
T3 sequence (P42338 whole entry): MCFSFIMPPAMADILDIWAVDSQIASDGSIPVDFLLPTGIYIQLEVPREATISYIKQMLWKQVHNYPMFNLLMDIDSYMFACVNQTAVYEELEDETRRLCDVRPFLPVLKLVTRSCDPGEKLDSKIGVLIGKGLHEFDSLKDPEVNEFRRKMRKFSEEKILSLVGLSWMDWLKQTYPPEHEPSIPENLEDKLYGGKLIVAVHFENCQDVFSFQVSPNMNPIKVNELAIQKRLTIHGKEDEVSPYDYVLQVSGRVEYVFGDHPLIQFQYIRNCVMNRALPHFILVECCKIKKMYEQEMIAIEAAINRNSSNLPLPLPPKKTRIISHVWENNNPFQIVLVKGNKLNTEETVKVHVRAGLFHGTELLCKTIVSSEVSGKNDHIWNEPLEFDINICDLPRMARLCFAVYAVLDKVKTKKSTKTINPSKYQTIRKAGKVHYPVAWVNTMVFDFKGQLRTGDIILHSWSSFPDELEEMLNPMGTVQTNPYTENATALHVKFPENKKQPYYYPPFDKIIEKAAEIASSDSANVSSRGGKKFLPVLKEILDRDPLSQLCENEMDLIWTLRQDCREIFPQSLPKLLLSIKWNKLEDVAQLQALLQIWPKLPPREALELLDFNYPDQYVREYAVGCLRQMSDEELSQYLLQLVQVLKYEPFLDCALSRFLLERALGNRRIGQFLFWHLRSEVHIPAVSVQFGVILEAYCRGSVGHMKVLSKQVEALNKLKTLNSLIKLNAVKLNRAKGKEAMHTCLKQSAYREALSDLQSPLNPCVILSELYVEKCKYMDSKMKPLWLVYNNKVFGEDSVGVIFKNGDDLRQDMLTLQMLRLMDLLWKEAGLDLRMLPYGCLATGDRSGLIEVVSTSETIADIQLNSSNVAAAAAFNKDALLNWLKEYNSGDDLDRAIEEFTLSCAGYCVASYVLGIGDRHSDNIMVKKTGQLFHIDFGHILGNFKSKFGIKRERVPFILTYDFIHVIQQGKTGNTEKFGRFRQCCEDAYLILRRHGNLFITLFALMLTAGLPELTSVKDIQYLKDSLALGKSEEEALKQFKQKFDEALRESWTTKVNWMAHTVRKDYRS
T3 sequence (P27986 whole entry, further chain): as the sequence (P27986 whole entry, further chain) above

[4] = target: T4, Full length human recombinant PIKFYVE (Homo sapiens, UniProt Q9Y2I7, L932S/Q1183K/Q995L/S1033A/S696N/T998S); assay: Inhibition of PIKfyve (microfluidic electrophoresis kinase assay)
T4 construct: Full length human recombinant PIKFYVE; purchased Carna Biosciences (Kobe, Japan); host or cells: baculovirus expression system (insect cells)
T4 sequence (Q9Y2I7 whole entry S696N/L932S/Q995L/T998S/S1033A/Q1183K): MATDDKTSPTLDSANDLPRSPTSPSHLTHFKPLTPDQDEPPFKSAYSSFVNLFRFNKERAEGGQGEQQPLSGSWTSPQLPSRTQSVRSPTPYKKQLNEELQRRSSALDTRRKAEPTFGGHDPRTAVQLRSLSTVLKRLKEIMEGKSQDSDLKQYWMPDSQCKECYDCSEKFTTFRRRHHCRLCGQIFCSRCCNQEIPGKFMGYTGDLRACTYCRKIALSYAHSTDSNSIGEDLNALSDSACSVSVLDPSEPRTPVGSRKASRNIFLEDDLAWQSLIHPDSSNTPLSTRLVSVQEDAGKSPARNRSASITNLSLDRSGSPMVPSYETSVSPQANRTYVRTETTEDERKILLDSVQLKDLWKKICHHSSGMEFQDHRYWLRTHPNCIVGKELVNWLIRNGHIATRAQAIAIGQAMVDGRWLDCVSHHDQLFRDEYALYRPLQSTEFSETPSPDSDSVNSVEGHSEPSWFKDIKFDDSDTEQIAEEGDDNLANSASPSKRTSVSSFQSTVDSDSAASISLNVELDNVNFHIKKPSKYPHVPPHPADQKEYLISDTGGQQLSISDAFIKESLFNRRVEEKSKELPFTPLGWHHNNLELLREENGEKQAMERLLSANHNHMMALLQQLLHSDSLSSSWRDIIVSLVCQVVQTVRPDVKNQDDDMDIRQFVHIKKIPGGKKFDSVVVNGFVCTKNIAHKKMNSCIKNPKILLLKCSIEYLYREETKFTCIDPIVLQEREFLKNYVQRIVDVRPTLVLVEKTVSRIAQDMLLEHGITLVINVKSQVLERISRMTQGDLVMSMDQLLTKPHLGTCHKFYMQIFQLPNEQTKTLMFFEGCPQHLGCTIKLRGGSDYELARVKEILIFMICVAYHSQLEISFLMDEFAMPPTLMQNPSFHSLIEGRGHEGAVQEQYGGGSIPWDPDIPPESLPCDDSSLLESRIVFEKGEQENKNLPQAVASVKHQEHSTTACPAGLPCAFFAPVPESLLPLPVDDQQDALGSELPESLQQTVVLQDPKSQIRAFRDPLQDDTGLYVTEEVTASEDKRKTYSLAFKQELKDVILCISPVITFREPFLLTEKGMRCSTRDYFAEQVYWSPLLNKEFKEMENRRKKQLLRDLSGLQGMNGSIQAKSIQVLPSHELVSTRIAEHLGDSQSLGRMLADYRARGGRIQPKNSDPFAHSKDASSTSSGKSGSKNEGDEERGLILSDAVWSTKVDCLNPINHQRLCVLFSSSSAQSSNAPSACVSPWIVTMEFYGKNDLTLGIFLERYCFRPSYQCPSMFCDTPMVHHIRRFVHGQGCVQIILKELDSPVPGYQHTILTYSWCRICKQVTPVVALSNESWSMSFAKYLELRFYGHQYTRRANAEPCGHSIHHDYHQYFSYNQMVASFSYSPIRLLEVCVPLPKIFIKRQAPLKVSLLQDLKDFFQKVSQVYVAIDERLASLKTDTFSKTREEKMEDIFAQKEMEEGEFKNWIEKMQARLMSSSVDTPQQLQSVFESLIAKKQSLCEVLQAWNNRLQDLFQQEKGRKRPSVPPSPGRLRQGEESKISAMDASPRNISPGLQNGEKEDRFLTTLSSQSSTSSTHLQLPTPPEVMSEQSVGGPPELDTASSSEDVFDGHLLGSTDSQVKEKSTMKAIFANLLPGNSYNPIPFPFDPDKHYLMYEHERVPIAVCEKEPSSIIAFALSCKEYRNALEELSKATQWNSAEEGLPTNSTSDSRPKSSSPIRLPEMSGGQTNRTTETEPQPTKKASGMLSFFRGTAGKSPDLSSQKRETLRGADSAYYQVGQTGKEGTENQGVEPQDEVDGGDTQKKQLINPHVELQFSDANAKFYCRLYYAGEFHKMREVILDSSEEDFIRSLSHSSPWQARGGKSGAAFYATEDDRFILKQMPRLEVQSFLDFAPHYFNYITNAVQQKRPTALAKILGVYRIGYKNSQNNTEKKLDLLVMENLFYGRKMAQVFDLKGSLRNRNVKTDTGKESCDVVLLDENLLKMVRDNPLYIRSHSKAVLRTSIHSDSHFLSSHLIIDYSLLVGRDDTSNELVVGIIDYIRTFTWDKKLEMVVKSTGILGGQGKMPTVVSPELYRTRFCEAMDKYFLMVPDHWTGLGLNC
Procedure: Biological Example 1: Inhibition of PIKfyve
Full length human recombinant PIKFYVE expressed in baculovirus expression system as N-terminal GST-fusion protein (265 kDa) was obtained from Carna Biosciences (Kobe, Japan). The kinase substrate was prepared by mixing and sonicating fluorescently-labeled phosphatidylinositol 3-phosphate (PI3P) with phospho-L-serine (PS) at a 1:10 ratio in 50 mM HEPES buffer pH7.5.
The kinase reactions were assembled in 384-well plates (Greiner) in a total volume of […] as follows. Kinase protein was pre-diluted in an assay buffer comprising 25 mM HEPES, pH 7.5, 1 mM DTT, 2.5 mM MgCl2, and 2.5 mM MnCl2, and 0.005% Triton X-100, and dispensed into a 384-well plate (10 μL per well). Test compounds were serially pre-diluted in DMSO and added to the protein samples by acoustic dispensing (Labcyte Echo). The concentration of DMSO was equalized to 1% in all samples. All test compounds were tested at 12 concentrations. Apilimod was used as a reference compound and was tested in identical manner in each assay plate. Control samples (0%-inhibition, in the absence of inhibitor, DMSO only) and 100%-inhibition (in the absence of enzyme) were assembled in replicates of four and were used to calculate %-inhibition in the presence of compounds. The reactions were initiated by addition of 10 μL of 2× PI3P/PS substrate supplemented with ATP. The final concentration of enzyme was 2 nM, the final concentration of ATP was […], and the final concentration of PI3P/PS substrate was 1 μM (PI3P). The kinase reactions were allowed to proceed for 3 h at room temperature. Following incubation, the reactions were quenched by addition of […] of termination buffer (100 mM HEPES, pH 7.5, 0.01% Triton X-100, 20 mM EDTA). Terminated plates were analyzed on a microfluidic electrophoresis instrument (Caliper LabChip® 3000, Caliper Life Sciences/Perkin Elmer). The change in the relative fluorescence intensity of the PI(3)P substrate and PI(3,5)P product peaks was measured. The activity in each test sample was determined as the product to sum ratio (PSR): P/(S+P), where P is the peak height of the product, and S is the peak height of the substrate. Percent inhibition (Pinh) was determined using the following equation:
Pinh=(PSR0%inh−PSRcompound)/(PSR0%inh−P100%inh)*100
in which PSRcompound is the product/sum ratio in the presence of compound, PSR0%inh is the product/sum ratio in the absence of compound, and the PSR100%inh is the product/sum ratio in the absence of the enzyme. To determine the ICso of test compounds (50%-inhibition) the %-inh cdata (Pinh versus compound concentration) were fitted by a four-parameter sigmoid dose-response model using XLfit software (IDBS).

[5] = 0.5 nM enzyme, ATP 90 μM, 1 μM PIP2, 3 h room temperature, read-out: PI3Kα IC50
[6] = 0.25 nM enzyme, ATP 90 μM, 1 μM PIP2, 3 h room temperature, read-out: PI3Kδ IC50
[7] = 1 nM enzyme, ATP 60 μM, 1 μM PIP2, 3 h room temperature, read-out: PI3Kβ IC50
[8] = 2 nM enzyme, 1 μM PI3P, 3 h at room temperature, 12 concentrations, read-out: PIKfyve IC50

`Cc1cc(Nc2nc(N3CCOCC3)c3oc4ncccc4c3n2)[nH]n1` [Example 8, N-(3-Methyl-1H-pyrazol-5-yl)-4-morpholinopyrido[3′,2′:4,5]furo[3,2-d]pyrimidin-2-amine] gave a pIC50 [1, 5] of 6.79, a pIC50 [2, 6] of 7.62 and a pIC50 [3, 7] of 6.51. The pIC50 [4, 8] was 5.66.
With `Cn1ccnc1Nc1nc(N2CCOCC2)c2oc3ncccc3c2n1` [Example 12, N-(1-Methyl-1H-imidazol-2-yl)-4-morpholinopyrido[3′,2′:4,5]furo[3,2-d]pyrimidin-2-amine] the pIC50 [1, 5] was 5.79, the pIC50 [2, 6] was 5.72 and the pIC50 [3, 7] was 5.18. For the same compound, the pIC50 [4, 8] was less than 5.00.
With `c1ccc(CCNc2nc(N3CCOCC3)c3oc4ncccc4c3n2)cc1` [Example 21, 4-morpholino-N-phenethylpyrido[3′,2′:4,5]furo[3,2-d]pyrimidin-2-amine] the pIC50 [1, 5] was 6.80, the pIC50 [2, 6] was 7.43 and the pIC50 [3, 7] was 6.61. For the same compound, the pIC50 [4, 8] was 6.01.
Compound `O=C(Nc1nc(N2CCOCC2)c2oc3ncccc3c2n1)Oc1ccccc1` [Example 22, phenyl(4-morpholinopyrido[3′,2′:4,5]furo[3,2-d]pyrimidin-2-yl)carbamate hydrochloride] has a pIC50 [1] of 6.10, a pIC50 [2] of 6.33 and a pIC50 [3] of 5.57. It also gave a pIC50 [4] of 5.19.
`FC(F)(F)Oc1cccc(-c2cc(Nc3nc(N4CCOCC4)c4oc5ncccc5c4n3)[nH]n2)c1` [Example 35, 4-morpholino-N-(3-(3-(trifluoromethoxy)phenyl)-1H-pyrazol-5-yl)pyrido[3′,2′:4,5]furo[3,2-d]pyrimidin-2-amine hydrochloride] was tested, and the pIC50 [4, 8] was 5.81.
Work on `C[C@H](Nc1nc(N2CCOCC2)c2oc3ncccc3c2n1)C1CC1` [Example 36, (S)-N-(1-cyclopropylethyl)-4-morpholinopyrido[3′,2′:4,5]furo[3,2-d]pyrimidin-2-amine] yielded a pIC50 [1, 5] of 7.11, a pIC50 [2, 6] of 7.11 and a pIC50 [3, 7] of 6.13. It also gave a pIC50 [4, 8] of less than 5.00.
For `c1cnc2oc3c(N4CCOCC4)nc(Nc4ccncc4)nc3c2c1` [Example 38, 4-morpholino-N-(pyridin-4-yl)pyrido[3′,2′:4,5]furo[3,2-d]pyrimidin-2-amine], the pIC50 [1, 5] was 5.06, the pIC50 [2, 6] was 5.83 and the pIC50 [3, 7] was 5.24. The pIC50 [4, 8] was less than 5.00.
In the case of `c1cncc(Nc2nc(N3CCOCC3)c3oc4ncccc4c3n2)c1` [Example 39, 4-morpholino-N-(pyridin-3-yl)pyrido[3′,2′:4,5]furo[3,2-d]pyrimidin-2-amine], the pIC50 [1, 5] was 7.09, the pIC50 [2, 6] was 7.22 and the pIC50 [3, 7] was 6.43. For the same compound, the pIC50 [4, 8] was 5.66.
`c1ccc(Nc2nc(N3CCOCC3)c3oc4ncccc4c3n2)nc1` [Example 40, 4-morpholino-N-(pyridin-2-yl)pyrido[3′,2′:4,5]furo[3,2-d]pyrimidin-2-amine] showed a pIC50 [1, 5] of 6.99, a pIC50 [2, 6] of 7.18 and a pIC50 [3, 7] of 5.92. It also gave a pIC50 [4, 8] of 5.56.
`c1cnc2oc3c(N4CCOCC4)nc(Nc4ccncn4)nc3c2c1` [Example 41, 4-morpholino-N-(pyrimidin-4-yl)pyrido[3′,2′:4,5]furo[3,2-d]pyrimidin-2-amine] showed a pIC50 [4, 8] of less than 5.00.
`c1cnc(Nc2nc(N3CCOCC3)c3oc4ncccc4c3n2)nc1` [Example 42, 4-morpholino-N-(pyrimidin-2-yl)pyrido[3′,2′:4,5]furo[3,2-d]pyrimidin-2-amine] showed a pIC50 [4, 8] of less than 5.00.
`c1ccc(-c2ccc(Nc3nc(N4CCOCC4)c4oc5ncccc5c4n3)cc2)cc1` [Example 44, N-([1,1′-biphenyl]-4-yl)-4-morpholinopyrido[3′,2′:4,5]furo[3,2-d]pyrimidin-2-amine] was tested, and the pIC50 [4, 8] was 6.45.
In the case of `c1ccc(-c2cccc(Nc3nc(N4CCOCC4)c4oc5ncccc5c4n3)c2)cc1` [Example 45, N-([1,1′-biphenyl]-3-yl)-4-morpholinopyrido[3′,2′:4,5]furo[3,2-d]pyrimidin-2-amine], the pIC50 [4, 8] was 5.40.
`c1ccc(-c2ccccc2Nc2nc(N3CCOCC3)c3oc4ncccc4c3n2)cc1` [Example 46, N-([1,1′-biphenyl]-2-yl)-4-morpholinopyrido[3′,2′:4,5]furo[3,2-d]pyrimidin-2-amine] was tested, and the pIC50 [4, 8] was 5.41.
`Cc1ccccc1-c1cc(Nc2nc(N3CCOCC3)c3oc4ncccc4c3n2)[nH]n1` [Example 48, 4-morpholino-N-(3-(o-tolyl)-1H-pyrazol-5-yl)pyrido[3′,2′:4,5]furo[3,2-d]pyrimidin-2-amine] gave a pIC50 [4, 8] of 6.29.
Work on `Cc1ccc(-c2cc(Nc3nc(N4CCOCC4)c4oc5ncccc5c4n3)[nH]n2)cc1` [Example 50, 4-morpholino-N-(3-(p-tolyl)-1H-pyrazol-5-yl)pyrido[3′,2′:4,5]furo[3,2-d]pyrimidin-2-amine] yielded a pIC50 [4, 8] of 6.40.
`Brc1cnc2oc3c(N4CCOCC4)nc(Nc4cc(-c5ccccc5)[nH]n4)nc3c2c1` [Example 51, 8-bromo-4-morpholino-N-(5-phenyl-1H-pyrazol-3-yl)pyrido[3′,2′:4,5]furo[3,2-d]pyrimidin-2-amine] gave a pIC50 [4, 8] of 6.06.
`c1cnc2oc3c(N4CCOCC4)ncnc3c2c1` [Example 52, 4-Morpholinopyrido[3′,2′:4,5]furo[3,2-d]pyrimidine] gave a pIC50 [4, 8] of less than 5.00.
`c1cnc2oc3c(N4CCOCC4)nc(Nc4cc(C5CC5)n[nH]4)nc3c2c1` [Example 53, N-(3-cyclopropyl-1H-pyrazol-5-yl)-4-morpholinopyrido[3′,2′:4,5]furo[3,2-d]pyrimidin-2-amine hydrochloride] gave a pIC50 [4, 8] of 5.68.
In the case of `c1cnc2oc3c(N4CCOCC4)nc(Nc4cc(CC5CC5)n[nH]4)nc3c2c1` [Example 54, N-(3-(cyclopropylmethyl)-1H-pyrazol-5-yl)-4-morpholinopyrido[3′,2′:4,5]furo[3,2-d]pyrimidin-2-amine hydrochloride], the pIC50 [4, 8] was 5.59.
For `c1cnc2oc3c(N4CCOCC4)nc(Nc4cc(C5CCC5)n[nH]4)nc3c2c1` [Example 55, N-(3-cyclobutyl-1H-pyrazol-5-yl)-4-morpholinopyrido[3′,2′:4,5]furo[3,2-d]pyrimidin-2-amine hydrochloride], the pIC50 [1, 5] was 7.80, the pIC50 [2, 6] was 8.15 and the pIC50 [3, 7] was 6.50. For the same compound, the pIC50 [4, 8] was 5.89.
In the case of `FC(F)(F)c1cc(Nc2nc(N3CCOCC3)c3oc4ncccc4c3n2)[nH]n1` [Example 57, 4-morpholino-N-(3-(trifluoromethyl)-1H-pyrazol-5-yl)pyrido[3′,2′:4,5]furo[3,2-d]pyrimidin-2-amine hydrochloride], the pIC50 [4, 8] was 5.23.
With `c1ccc(Cc2cc(Nc3nc(N4CCOCC4)c4oc5ncccc5c4n3)[nH]n2)cc1` [Example 58, N-(3-benzyl-1H-pyrazol-5-yl)-4-morpholinopyrido[3′,2′:4,5]furo[3,2-d]pyrimidin-2-amine hydrochloride] the pIC50 [4, 8] was 6.08.
Compound `c1cnc2oc3c(N4CCOCC4)nc(Nc4cc(C5CCCC5)n[nH]4)nc3c2c1` [Example 59, N-(3-cyclopentyl-1H-pyrazol-5-yl)-4-morpholinopyrido[3′,2′:4,5]furo[3,2-d]pyrimidin-2-amine hydrochloride] has a pIC50 [4, 8] of 5.89.
`c1csc(-c2cc(Nc3nc(N4CCOCC4)c4oc5ncccc5c4n3)[nH]n2)c1` [Example 60, 4-morpholino-N-(3-(thiophen-2-yl)-1H-pyrazol-5-yl)pyrido[3′,2′:4,5]furo[3,2-d]pyrimidin-2-amine hydrochloride] gave a pIC50 [4, 8] of 7.43.
`CCc1cc(Nc2nc(N3CCOCC3)c3oc4ncccc4c3n2)[nH]n1` [Example 62, N-(3-ethyl-1H-pyrazol-5-yl)-4-morpholinopyrido[3′,2′:4,5]furo[3,2-d]pyrimidin-2-amine hydrochloride] was tested, and the pIC50 [4, 8] was 5.11.
`CC(C)c1cc(Nc2nc(N3CCOCC3)c3oc4ncccc4c3n2)[nH]n1` [Example 63, N-(3-isopropyl-1H-pyrazol-5-yl)-4-morpholinopyrido[3′,2′:4,5]furo[3,2-d]pyrimidin-2-amine hydrochloride] showed a pIC50 [4, 8] of 5.73.
